Laboratory results: US11970483B2, “Heterocyclic compound” (Takeda Pharmaceutical Company Limited, priority 2018, dated 2024)

How the values were obtained:
MDR1 = target: T1, MDR1 (Homo sapiens, UniProt P08183); assay: MDR1 membrane permeability test; type: in vitro ADME; conditions: human MDR1-expressing LLC-PK1 cells, 10 μmol/L test compound, pH 7.4, read-out: Efflux ratio (ER)
T1 construct: expressed in transfected cells; host or cells: LLC-PK1 cells (porcine kidney)
Method: MDR1 membrane permeability test
When MDR1 is expressed in excess in LLC-PK1 cell, which is a polar cell, MDR1 is localized in apical membrane (A), thus promoting transcellular transport from the basement membrane side (B) toward direction A. When a ratio to the transcellular transport in the opposite direction is taken and a ratio to a control cell in which a mock vector has been introduced is further taken, an efflux ratio of MDR1 to simple diffusion (corrected efflux ratio) is calculated. Similarly, when a brain/plasma concentration ratio in Mdr1(−/−) mouse is divided by a brain/plasma concentration ratio in wild-type mouse, an efflux ratio of Mdr1 to simple diffusion in blood-brain barrier (BBB) (Kp, brain ratio, higher value means lower central nervous system permeability) is calculated. Adachi Y. et al. (Reference 1) has reported a positive correlation between corrected efflux ratio and Kp, brain ratio (FIG. 5(C)), and efflux ratio in MDR1 expressing cell and Kp, brain ratio (FIG. 5(B)).
To confirm the central nervous system permeability of the compounds of the present invention, a MDR1 membrane permeability test was performed by the following method.
Digoxin and lucifer yellow (LY) were purchased from Sigma-Aldrich, Diclofenac, colchicine and alprenolol were purchased from Wako Pure Chemical Industries, Ltd., and other reagents used were commercially available products of special grade.
Human MDR1-expressing LLC-PK1 cells were cultured according to the report of Takeuchi et al. (Reference 2). Human MDR1-expressing LLC-PK1 cells were cultured in 10% fetal bovine serum (Invitrogen), 500 μg/ml G418 (Invitrogen), 150 ng/ml colchicine-containing M199 medium (Invitrogen) under 5% CO2 conditions at 37° C.
Transcellular transport was performed according to the report of Sugimoto et al. (Reference 3). The cells were cultured for 3 days on HTS Transwell (registered trademark) 96 well permeable support (pore size 0.4 μm, 0.143 cm^2 surface area, Corning Life Sciences) having polyethylene terephthalate membrane on which the cells had been seeded at 3.45×10^4 cells/well. […] After 1 hr, the sample was collected from the side opposite to the side where the drug solution was added, and the concentration of the test compound was measured by LC-MS/MS. […]
LY was measured by a fluorescence plate reader (Fluoroskan Ascent FL).
Papp, A to B and Papp, B to A (apparent permeability) were calculated from the formula (1), and the efflux ratio (ER) was calculated from the formula (2). […]

Male ICR mice = assay: Mouse defecation experiment; type: in vivo; conditions: oral, mean±standard error
Method: Mouse Defecation Experiment
Male ICR mice (6-7 weeks old) were used after an acclimation period for about 1 week. A test drug (1 mg/kg or 3 mg/kg) was suspended in 0.5% methylcellulose solution and orally administered at a volume of 10 mL/kg, and the number of feces 2 hr later was counted. Only 0.5% methylcellulose was administered to a solvent administration group.

T1 sequence (P08183 whole entry): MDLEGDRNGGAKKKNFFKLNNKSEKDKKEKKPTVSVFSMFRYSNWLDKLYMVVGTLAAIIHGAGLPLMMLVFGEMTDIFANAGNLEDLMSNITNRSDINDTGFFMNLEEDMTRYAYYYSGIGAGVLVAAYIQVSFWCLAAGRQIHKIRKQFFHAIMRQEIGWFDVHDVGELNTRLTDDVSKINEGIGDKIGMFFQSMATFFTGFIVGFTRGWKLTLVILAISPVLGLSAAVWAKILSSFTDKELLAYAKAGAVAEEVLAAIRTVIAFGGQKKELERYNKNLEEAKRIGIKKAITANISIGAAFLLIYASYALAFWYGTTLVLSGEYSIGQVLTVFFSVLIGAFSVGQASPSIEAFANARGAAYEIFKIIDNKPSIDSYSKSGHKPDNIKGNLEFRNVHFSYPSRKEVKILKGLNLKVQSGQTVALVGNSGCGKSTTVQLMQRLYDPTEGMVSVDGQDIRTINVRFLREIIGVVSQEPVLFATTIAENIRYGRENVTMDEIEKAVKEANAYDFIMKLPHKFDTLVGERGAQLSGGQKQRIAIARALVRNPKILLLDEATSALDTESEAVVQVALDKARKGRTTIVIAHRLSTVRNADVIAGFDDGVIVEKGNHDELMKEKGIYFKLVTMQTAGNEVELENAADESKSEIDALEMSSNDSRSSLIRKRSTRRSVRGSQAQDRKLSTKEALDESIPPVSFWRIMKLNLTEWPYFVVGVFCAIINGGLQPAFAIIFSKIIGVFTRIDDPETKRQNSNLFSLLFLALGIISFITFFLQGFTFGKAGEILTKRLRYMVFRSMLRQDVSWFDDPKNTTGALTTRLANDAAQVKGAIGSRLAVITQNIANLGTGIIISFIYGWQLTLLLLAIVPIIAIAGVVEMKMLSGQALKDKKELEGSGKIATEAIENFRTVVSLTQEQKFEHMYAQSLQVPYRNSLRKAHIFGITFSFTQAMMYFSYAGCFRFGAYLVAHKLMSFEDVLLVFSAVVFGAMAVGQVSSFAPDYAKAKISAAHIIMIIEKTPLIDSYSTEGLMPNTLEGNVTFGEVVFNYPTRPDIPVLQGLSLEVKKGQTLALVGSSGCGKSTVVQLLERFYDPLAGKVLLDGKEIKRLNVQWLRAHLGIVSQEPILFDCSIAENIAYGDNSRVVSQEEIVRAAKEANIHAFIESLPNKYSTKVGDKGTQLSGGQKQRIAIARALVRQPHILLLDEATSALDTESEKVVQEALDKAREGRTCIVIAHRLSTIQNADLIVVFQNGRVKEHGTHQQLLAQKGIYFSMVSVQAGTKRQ

Row | Compound | efflux ratio at 1 h, 10 μmol/L (MDR1) | number of feces 2 hr later (Male ICR mice; 1 mg/kg) | number of feces 2 hr later (Male ICR mice; 3 mg/kg)
1 | Cc1c(Cc2ccc(-c3cn(C)nn3)cc2)cc(C(=O)N[C@H]2CCOC[C@@H]2O)c2c1CCO2 [Example 1, 1,5-anhydro-2,3-dideoxy-3-[(4-methyl-5-{[4-(1-methyl-1H-1,2,3-triazol-4-yl)phenyl]methyl}-2,3-dihydro-1-benzofuran-7-carbonyl)amino]-L-threo-pentitol] | 3 | 8.8 ± 2.1 | –
2 | COCCNC(=O)c1ccc(Cc2cc(C(=O)N[C@H]3CCOC[C@@H]3O)c3c(c2C)CCO3)cc1F [Example 27, 1,5-anhydro-2,3-dideoxy-3-{[5-({3-fluoro-4-[(2-methoxyethyl)carbamoyl]phenyl}methyl)-4-methyl-2,3-dihydro-1-benzofuran-7-carbonyl]amino}-L-threo-pentitol] | 6.2 | 7.4 ± 0.9 | 6.2 ± 1.0
3 | Cc1c(Cc2ccc(C(=O)NCC(=O)N(C)C)c(F)c2)cc(C(=O)N[C@H]2CCOC[C@@H]2O)c2c1CCO2 [Example 28, 1,5-anhydro-2,3-dideoxy-3-({5-[(4-{[2-(dimethylamino)-2-oxoethyl]carbamoyl}-3-fluorophenyl)methyl]-4-methyl-2,3-dihydro-1-benzofuran-7-carbonyl}amino)-L-threo-pentitol] | 12 | 7.2 ± 1.9 | 6.2 ± 1.3
4 | Cc1c(Cc2ccc(C(=O)NC[C@H]3CCCO3)c(F)c2)cc(C(=O)N[C@H]2CCOC[C@@H]2O)c2c1CCO2 [Example 29, 1,5-anhydro-2,3-dideoxy-3-[(5-{[3-fluoro-4-({[(2R)-oxolan-2-yl]methyl}carbamoyl)phenyl]methyl}-4-methyl-2,3-dihydro-1-benzofuran-7-carbonyl)amino]-L-threo-pentitol] | 6 | – | –
